Laboratory results taken from ChEMBL document CHEMBL1201862, “PubChem BioAssay data set” (2004).
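In this assay, cells in 96-well plates receive the compound at five concentrations for 48 hours. Endpoints are linearly interpolated between the surrounding concentrations. GI50 marks 50% less growth.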 Activity calls are given as the source filed them. Rule as the data show it: active = GI50 up to about 1.1 µM and inactive = higher.

Experiments:
Test in all cases: growth of human tumour cells (NCI), 48 h
[1] = tested on: MOLT-4
[2] = tested on: OVCAR-5
[3] = tested on: SK-MEL-5
[4] = tested on: SF-268
[5] = tested on: 786-0
[6] = tested on: UACC-257
[7] = tested on: HCT-15
[8] = tested on: COLO 205
[9] = tested on: SW-620
[10] = tested on: HCT-116
[11] = tested on: ACHN
[12] = tested on: SF-539
[13] = tested on: TK-10
[14] = tested on: NCI-H460
[15] = tested on: HT-29
[16] = tested on: SK-OV-3
[17] = tested on: OVCAR-3
[18] = tested on: RXF 393
[19] = tested on: T47D
[20] = tested on: MDA-MB-435
[21] = tested on: M14
[22] = tested on: EKVX
[23] = tested on: PC-3
[24] = tested on: SN12C
[25] = tested on: BT-549
[26] = tested on: HCC 2998
[27] = tested on: A549
[28] = tested on: U-251
[29] = tested on: CCRF-CEM
[30] = tested on: NCI-H226
[31] = tested on: SR
[32] = tested on: MDA-N
[33] = tested on: UO-31
[34] = tested on: SK-MEL-2
[35] = tested on: SF-295
[36] = tested on: HOP-62
[37] = tested on: SK-MEL-28
[38] = tested on: MDA-MB-231
[39] = tested on: UACC-62
[40] = tested on: HOP-92
[41] = tested on: CAKI-1
[42] = tested on: OVCAR-4
[43] = tested on: OVCAR-8
[44] = tested on: KM12
[45] = tested on: IGROV-1
[46] = tested on: NCI/ADR-RES
[47] = tested on: A498
[48] = tested on: K562
[49] = tested on: DU-145
[50] = tested on: LOX IMVI
[51] = tested on: NCI-H23
[52] = tested on: SNB-75
[53] = tested on: SNB-19
[54] = tested on: MCF7
[55] = tested on: NCI-H522
[56] = tested on: HL-60
[57] = tested on: RPMI-8226
[58] = tested on: Malme-3M
[59] = tested on: Hs-578T

`O=C(O)CCc1nc2cc3ccccc3cc2[nH]c1=O` was tested, and the GI50 [1] was > 100 µM (inactive), the GI50 [2] was > 100 µM (inactive) and the GI50 [3] was > 100 µM (inactive). For the same molecule, the GI50 [4] was > 100 µM (inactive), the GI50 [5] was > 100 µM (inactive) and the GI50 [6] was > 100 µM (inactive). The GI50 [7] was over 100 µM, the GI50 [8] was > 100 µM (inactive) and the GI50 [9] was > 100 µM (inactive). The GI50 [10] was > 100 µM (inactive), the GI50 [11] was > 100 µM (inactive) and the GI50 [12] was > 100 µM (inactive). The GI50 [13] was > 100 µM (inactive), the GI50 [14] was > 100 µM (inactive) and the GI50 [15] was > 100 µM (inactive). The GI50 [16] was > 100 µM (inactive), the GI50 [17] was > 100 µM (inactive) and the GI50 [18] was > 100 µM (inactive). For the same molecule, the GI50 [19] was > 100 µM (inactive), the GI50 [20] was > 100 µM (inactive) and the GI50 [21] was > 100 µM (inactive). The GI50 [22] was > 100 µM (inactive), the GI50 [23] was > 100 µM (inactive) and the GI50 [24] was > 100 µM (inactive). The GI50 [25] was > 100 µM (inactive), the GI50 [26] was > 100 µM (inactive) and the GI50 [27] was > 100 µM (inactive). For the same molecule, the GI50 [28] was > 100 µM (inactive), the GI50 [29] was > 100 µM (inactive) and the GI50 [30] was > 100 µM (inactive). For the same molecule, the GI50 [31] was > 100 µM (inactive), the GI50 [32] was > 100 µM (inactive) and the GI50 [33] was > 100 µM (inactive). The GI50 [34] was > 100 µM (inactive), the GI50 [35] was > 100 µM (inactive) and the GI50 [36] was > 100 µM (inactive). For the same molecule, the GI50 [37] was > 100 µM (inactive), the GI50 [38] was > 100 µM (inactive) and the GI50 [39] was > 100 µM (inactive). For the same molecule, the GI50 [40] was > 100 µM (inactive), the GI50 [41] was > 100 µM (inactive) and the GI50 [42] was > 100 µM (inactive). For the same molecule, the GI50 [43] was > 100 µM (inactive), the GI50 [44] was > 100 µM (inactive) and the GI50 [45] was > 100 µM (inactive). The GI50 [46] was > 100 µM (inactive), the GI50 [47] was > 100 µM (inactive) and the GI50 [48] was > 100 µM (inactive). The GI50 [49] was > 100 µM (inactive), the GI50 [50] was > 100 µM (inactive) and the GI50 [51] was > 100 µM (inactive). For the same molecule, the GI50 [52] was > 100 µM (inactive), the GI50 [53] was > 100 µM (inactive) and the GI50 [54] was 65.6 µM (inactive). The GI50 [55] was > 100 µM (inactive).

In the case of `Clc1cc(-c2ccccc2)nc(Nc2nc3ccccc3[nH]2)n1`, the GI50 [56] is reported as 0.832 µM (active), the GI50 [1] is reported as 22.3 µM (inactive) and the GI50 [2] is reported as > 100 µM (inactive). For the same molecule, the GI50 [3] was 38.5 µM (inactive), the GI50 [4] was 23.6 µM (inactive) and the GI50 [5] was 16.5 µM (inactive). The GI50 [6] was 20.6 µM (inactive), the GI50 [7] was 6.95 µM and the GI50 [8] was 13.8 µM (inactive). The GI50 [9] was 6.01 µM (inactive), the GI50 [10] was 25.1 µM (inactive) and the GI50 [11] was 17.5 µM (inactive). For the same molecule, the GI50 [12] was > 100 µM (inactive), the GI50 [13] was > 100 µM (inactive) and the GI50 [14] was 19 µM (inactive). The GI50 [15] was 15 µM (inactive), the GI50 [16] was 64.7 µM (inactive) and the GI50 [18] was 4.27 µM (inactive). The GI50 [57] was > 100 µM (inactive), the GI50 [19] was > 100 µM (inactive) and the GI50 [20] was 23.3 µM (inactive). For the same molecule, the GI50 [21] was 23.7 µM (inactive), the GI50 [22] was 24 µM (inactive) and the GI50 [23] was 44.7 µM (inactive). For the same molecule, the GI50 [24] was 28.2 µM (inactive), the GI50 [25] was 22.9 µM (inactive) and the GI50 [27] was > 100 µM (inactive). For the same molecule, the GI50 [28] was 15.3 µM (inactive), the GI50 [29] was 6.08 µM (inactive) and the GI50 [30] was 55.5 µM (inactive). The GI50 [31] was 2.84 µM (inactive), the GI50 [32] was 18.8 µM (inactive) and the GI50 [33] was 55 µM (inactive). The GI50 [34] was > 10 µM (inactive), the GI50 [35] was 37.1 µM (inactive) and the GI50 [38] was 15 µM (inactive). For the same molecule, the GI50 [39] was 17.7 µM (inactive), the GI50 [40] was 2.2 µM (inactive) and the GI50 [58] was 28.2 µM (inactive). For the same molecule, the GI50 [41] was 2.14 µM (inactive), the GI50 [42] was 15.9 µM (inactive) and the GI50 [43] was 22 µM (inactive). For the same molecule, the GI50 [44] was 40.2 µM (inactive), the GI50 [45] was 14.7 µM (inactive) and the GI50 [46] was 43.5 µM (inactive). For the same molecule, the GI50 [47] was 33.3 µM (inactive), the GI50 [48] was 4.05 µM (inactive) and the GI50 [49] was > 100 µM (inactive). The GI50 [51] was 18.2 µM (inactive), the GI50 [52] was 34.4 µM (inactive) and the GI50 [53] was 83 µM (inactive). For the same molecule, the GI50 [59] was 27.3 µM (inactive) and the GI50 [55] was 11.4 µM (inactive).
